Measured values published in patent publication US8067456B2 (AEterna Zentaris GmbH, priority 2004, dated 2011).
pEC50: −log10 of the molar value. Values after ≈ are worked out from the molar mass of the structure shown.

How the values were obtained:
LHRH receptor = target: T1, LHRH receptor (Rattus norvegicus, UniProt P30969); experiment: LHRH receptor-ligand binding assay (membrane preparations from rat pituitary cells); details: competition with 0.05 nM [125I][D-Trp6]-LHRH, 90 min, 4° C., rat pituitary membranes
T1 construct: rat pituitary cells which naturally strongly express the LHRH receptor; from tissue; host or cells: rat pituitary cells (membrane preparation)
T1 sequence (P30969 1-327): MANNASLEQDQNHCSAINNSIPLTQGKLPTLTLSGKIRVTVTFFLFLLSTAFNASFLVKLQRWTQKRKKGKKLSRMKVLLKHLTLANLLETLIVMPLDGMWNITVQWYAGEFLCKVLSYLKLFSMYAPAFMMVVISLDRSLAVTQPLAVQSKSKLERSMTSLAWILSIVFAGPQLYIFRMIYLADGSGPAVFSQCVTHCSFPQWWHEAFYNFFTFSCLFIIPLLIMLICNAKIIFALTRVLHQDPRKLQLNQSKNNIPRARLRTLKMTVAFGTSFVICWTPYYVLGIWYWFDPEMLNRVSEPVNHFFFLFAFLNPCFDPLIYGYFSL
Method: Heterologous competition experiments were carried out using membrane preparations from rat pituitary cells which naturally strongly express the LHRH receptor. The ligand used in this case was [^125I][D-Trp^6]-LHRH in a concentration of 0.05 nM. Unlabeled [D-Trp^6]-LHRH was used in a concentration of 1 μM, or the test substance was used in the desired concentration, for competition. After an incubation time of 90 minutes at 4° C., the bound ligand was measured by scintillation (Halmos et al., Proc. Natl. Acad. Sci. USA, 1996, 93, 2398).
The result obtained was the percentage proportion of bound ligand in the presence of the competitor related to the specifically bound proportion of the control (see result for selected compounds in Table 3). EC50 values were calculated by nonlinear regression analysis of the competition plots.

rat LHRH receptor = target: T2, rat LHRH receptor (Rattus norvegicus, UniProt P30969); experiment: LHRH receptor-ligand binding assay (transfected LTK cells); details: LTK cells transfected with rat LHRH receptor, 125I-triptorelin tracer, 37° C., 60 min; read-out: Binding to r-LHRHR EC50
T2 construct: expressed in transfected cells; host or cells: LTK cells (mouse fibroblasts, ATCC CCL-1.3)
T2 sequence (P30969 1-327): T1 sequence (P30969 1-327)
Method: ^125I-Triptorelin [^125I-(D)-Trp6-GnRH] was purchased from Biotrend (Cologne, Germany).
The specific activity was in each case 2.13 Ci/mmol.
LTK cells (mouse fibroblasts: ATCC No. CCL-1.3) which have been transfected with the rat LHRH receptor are cultivated in DMEM medium (Invitrogen Life Technologies, Germany) with penicillin (100 I.U./ml), streptomycin (0.1 mg/ml) and glutamine (0.01 mol/l) and 10% fetal calf serum (FCS; Invitrogen Life Technologies, Germany) on plastic tissue culture plates (Nunc, Germany, 245×245-20 mm).
80% confluent cell culture plates are washed twice with 50 ml of phosphate-buffered saline (PBS) and then detached with 0.01 M EDTA solution. The cells are pelleted by centrifugation at 200·g for 5 min in a laboratory centrifuge (Kendro, Germany). The cell pellet is resuspended in 3 ml of binding medium (DMEM; 10 mM Hepes; 0.5% BSA; 0.1% […]; 1 g/l bacitracin (add fresh, stock 100×); 0.1 g/l SBTI (add fresh, stock 1000×) and the cell count is determined by Trypan blue staining in a Neubauer counting chamber. The cell suspension is adjusted with binding medium to a concentration of 5×10^5 cells/0.05 ml.
Binding studies for competition plots are carried out as duplicates. The test substances are employed as 10 mM DMSO solutions. They are diluted to 4 times the final concentration employed with binding medium. 25 μl of the substance dilution are mixed with 25 μl of tracer solution (^125I-triptorelin or ^125I-cetrorelix). The tracer concentration is adjusted to approx. 50 000 cpm (measured in a Cobra II, γ counter. PE Liefe Science, Germany) in the final reaction volume of 100 μl.
200 μl of silicone/liquid paraffin mixture (84%:16%) are introduced into 650 μl conical tubes (Roth. Germany). 50 μl of the cell suspension are pipetted thereon, followed by 50 μl of the test substance/tracer mixture. The tubes are capped and incubated with vertical rotation in an incubator at 37° C. for 60 min. After incubation, the samples are centrifuged in a centrifuge (Kendro, Germany) at 900 rpm and subsequently shock-frozen in liquid N2. The tip with the cell pellet is cut off and transferred into prepared counting vials (Roth, Germany). The remainder of the conical tube with the remaining supernatant is likewise transferred into a counting vial. The measurement takes place in a γ counter for 1 min/sample.
Evaluation of the samples takes place after calculation of the specific binding compared with untreated cells, after subtraction of the nonspecific binding (excess of unlabeled ligand, 1 μM) by means of GraphPad Prism or alternatively by means of OMMM software.

castrated rats = experiment: LH concentration suppression in the plasma of castrated rats; type: in vivo, rat; details: 100 mg/kg oral in Solutol HS15/1,2-propane-diol (3:1)
Method: The LH concentration in the plasma of castrated rats was measured using the rat luteinizing hormone (rLH) enzyme immunoassay (EIA) system ELISA (RPN 2562) from Amersham Pharmacia Biotech or of LH RIA-AH R002 rats; from Biocode-Hycel, Liege, Belgium. All other chemicals used were from commercial sources in the highest purity available.
10 days before the start of the test, male Sprague Dawley rats (Harlan Winkelmann, Germany) weighing 190-220 g were anesthetized with ether and castrated and provided with a silicone catheter for permanent blood sampling.
At the start of the test, before administration of the substance, blood samples were taken and the LH level determined. The substance was then administered orally in the desired concentration. The number of animals used in each group was 8. At the stated times, further blood samples were taken. The blood was collected in heparinized sample tubes on ice, and the plasma was obtained by centrifugation at 3000 g for 10 minutes. The plasma samples were stored at −20° C. until the LH concentration was measured by ELISA or RIA. The LH concentration was determined by an ELISA or RIA in duplicate determination in accordance with the manufacturer's (Amersham Pharmacia Biotech; Biocode-Hycel) instructions.
All the other data points for each individual animal were calculated as relative concentration compared with the LH concentration before treatment.

[1] = Saturation solubility in water; type: physicochemical; details: water, thermodynamic from solid; maximum of 1% DMSO added, HPLC UV
Method: The saturation solubility in water was determined in accordance with the following description: to initiate dissolving of the substances and to improve the wetting of the samples, a maximum of 1% DMSO was added. The content was checked by using an HPLC UV method.

[2] = Metabolic stability in rat liver microsomes; type: in vitro ADME; details: 1 μM, 37° C., NADPH
Method: The metabolic stability in relation to liver microsomes (species human, rat) was determined in accordance with the following description: the substances were incubated at a test concentration of 1 […] An HPLC MS/MS method was subsequently used to quantify the unmetabolized amount of starting compound relative to 100%.

CCC(C)[C@H](NC(=O)OCc1ccccc1)C(=O)N[C@]1(C(=O)N[C@H](C(N)=S)C(C)CC)CCc2[nH]c3c(Cl)cc(Cl)cc3c2C1 (stereo partly drawn) [Compound 7, benzyl {(S)-1-[(R)-6,8-dichloro-3-((S)-2-methyl-1-thiocarbamoylbutylcarbamoyl)-2,3,4,9-tetrahydro-1H-carbazol-3-ylcarbamoyl]-2-methylbutyl}carbamate]
pEC50 (LHRH receptor): 8.16 | pEC50 (rat LHRH receptor): 8.10 | Relative LH concentration (%) (averages ± SEM compared with the concentration before treatment) (castrated rats; time 0 h): 91.8 ± 19.1% | Relative LH concentration (%) (averages ± SEM compared with the concentration before treatment) (castrated rats; time +4 h): 19.6 ± 8.9% | Relative LH concentration (%) (averages ± SEM compared with the concentration before treatment) (castrated rats; time +6 h): 10.1 ± 3.2% | Relative LH concentration (%) (averages ± SEM compared with the concentration before treatment) (castrated rats; time +24 h): 65.1 ± 13.9% | Relative LH concentration (%) (averages ± SEM compared with the concentration before treatment) (castrated rats; time +48 h): 110.6 ± 33.0% | Relative LH concentration (%) (averages ± SEM compared with the concentration before treatment) (castrated rats; time +72 h): 268.4 ± 93.0% | Relative LH concentration (%) (averages ± SEM compared with the concentration before treatment) (castrated rats; time −2 h (before treatment)): 110.8 ± 12.2% | Relative LH concentration (%) (averages ± SEM compared with the concentration before treatment) (castrated rats; time −4 h (before treatment)): 97.4 ± 15.3% | solubility [1]: 54.6 µg/mL (≈ 80.9 µM) | recovery at 1 μM [2]: 78%
